Data from the NIST ThermoML archive (doi:10.1021/je200721d).

Test: xn = mol fraction of the nth substance listed
Conditions: Liquid, Vibrating tube method

CCCCCCCC [octane] + CCCCCC
Conditions | mass density [kg/m3]
342.93 K, 1000 kPa, x2 = 0.5749 | 640.49
342.93 K, 2000 kPa, x2 = 0.5749 | 641.81
342.93 K, 3000 kPa, x2 = 0.5749 | 643.05
342.93 K, 4000 kPa, x2 = 0.5749 | 644.29
342.93 K, 5000 kPa, x2 = 0.5749 | 645.58
342.93 K, 6000 kPa, x2 = 0.5749 | 646.83
342.93 K, 7000 kPa, x2 = 0.5749 | 648.05
342.93 K, 8000 kPa, x2 = 0.5749 | 649.28
342.93 K, 9000 kPa, x2 = 0.5749 | 650.49
342.93 K, 10000 kPa, x2 = 0.5749 | 651.67
342.93 K, 11000 kPa, x2 = 0.5749 | 652.87
342.93 K, 12000 kPa, x2 = 0.5749 | 654.03
342.93 K, 13000 kPa, x2 = 0.5749 | 655.19
342.93 K, 14000 kPa, x2 = 0.5749 | 656.31
342.93 K, 15000 kPa, x2 = 0.5749 | 657.42
342.93 K, 16000 kPa, x2 = 0.5749 | 658.5
342.93 K, 17000 kPa, x2 = 0.5749 | 659.57
342.93 K, 18000 kPa, x2 = 0.5749 | 660.6
342.93 K, 19000 kPa, x2 = 0.5749 | 661.62
342.93 K, 20000 kPa, x2 = 0.5749 | 662.6
342.93 K, 21000 kPa, x2 = 0.5749 | 663.59
342.93 K, 22000 kPa, x2 = 0.5749 | 664.52
342.93 K, 23000 kPa, x2 = 0.5749 | 665.48
342.93 K, 24000 kPa, x2 = 0.5749 | 666.39
342.93 K, 25000 kPa, x2 = 0.5749 | 667.28
342.94 K, 1000 kPa, x2 = 0.2199 | 655.33
342.94 K, 2000 kPa, x2 = 0.2199 | 656.52
342.94 K, 3000 kPa, x2 = 0.2199 | 657.67
342.94 K, 4000 kPa, x2 = 0.2199 | 658.87
342.94 K, 5000 kPa, x2 = 0.2199 | 660.02
342.94 K, 6000 kPa, x2 = 0.2199 | 661.18
342.94 K, 7000 kPa, x2 = 0.2199 | 662.34
342.94 K, 8000 kPa, x2 = 0.2199 | 663.49
342.94 K, 9000 kPa, x2 = 0.2199 | 664.6
342.94 K, 10000 kPa, x2 = 0.2199 | 665.73
342.94 K, 11000 kPa, x2 = 0.2199 | 666.84
342.94 K, 12000 kPa, x2 = 0.2199 | 667.93
342.94 K, 13000 kPa, x2 = 0.2199 | 669.01
342.94 K, 14000 kPa, x2 = 0.2199 | 670.06
342.94 K, 15000 kPa, x2 = 0.2199 | 671.09
342.94 K, 16000 kPa, x2 = 0.2199 | 672.1
342.94 K, 17000 kPa, x2 = 0.2199 | 673.1
342.94 K, 18000 kPa, x2 = 0.2199 | 674.07
342.94 K, 19000 kPa, x2 = 0.2199 | 675.02
342.94 K, 20000 kPa, x2 = 0.2199 | 675.95
342.94 K, 21000 kPa, x2 = 0.2199 | 676.87
342.94 K, 22000 kPa, x2 = 0.2199 | 677.76
342.94 K, 23000 kPa, x2 = 0.2199 | 678.64
342.94 K, 24000 kPa, x2 = 0.2199 | 679.49
342.94 K, 25000 kPa, x2 = 0.2199 | 680.34
342.98 K, 1000 kPa, x2 = 0.9308 | 619.48
342.98 K, 2000 kPa, x2 = 0.9308 | 620.92
342.98 K, 3000 kPa, x2 = 0.9308 | 622.34
342.98 K, 4000 kPa, x2 = 0.9308 | 623.76
342.98 K, 5000 kPa, x2 = 0.9308 | 625.17
342.98 K, 6000 kPa, x2 = 0.9308 | 626.56
342.98 K, 7000 kPa, x2 = 0.9308 | 627.93
342.98 K, 8000 kPa, x2 = 0.9308 | 629.29
342.98 K, 9000 kPa, x2 = 0.9308 | 630.63
342.98 K, 10000 kPa, x2 = 0.9308 | 631.94
342.98 K, 11000 kPa, x2 = 0.9308 | 633.24
342.98 K, 12000 kPa, x2 = 0.9308 | 634.53
342.98 K, 13000 kPa, x2 = 0.9308 | 635.77
342.98 K, 14000 kPa, x2 = 0.9308 | 637.01
342.98 K, 15000 kPa, x2 = 0.9308 | 638.23
342.98 K, 16000 kPa, x2 = 0.9308 | 639.42
342.98 K, 17000 kPa, x2 = 0.9308 | 640.57
342.98 K, 18000 kPa, x2 = 0.9308 | 641.7
342.98 K, 19000 kPa, x2 = 0.9308 | 642.81
342.98 K, 20000 kPa, x2 = 0.9308 | 643.91
342.98 K, 21000 kPa, x2 = 0.9308 | 644.95
342.98 K, 22000 kPa, x2 = 0.9308 | 645.97
342.98 K, 23000 kPa, x2 = 0.9308 | 646.98
342.98 K, 24000 kPa, x2 = 0.9308 | 647.95
342.98 K, 25000 kPa, x2 = 0.9308 | 648.91
342.99 K, 1000 kPa, x2 = 0.1654 | 657.36
342.99 K, 2000 kPa, x2 = 0.1654 | 658.52
342.99 K, 3000 kPa, x2 = 0.1654 | 659.68
342.99 K, 4000 kPa, x2 = 0.1654 | 660.84
342.99 K, 5000 kPa, x2 = 0.1654 | 662.01
342.99 K, 6000 kPa, x2 = 0.1654 | 663.15
342.99 K, 7000 kPa, x2 = 0.1654 | 664.27
342.99 K, 8000 kPa, x2 = 0.1654 | 665.4
342.99 K, 9000 kPa, x2 = 0.1654 | 666.53
342.99 K, 10000 kPa, x2 = 0.1654 | 667.62
342.99 K, 11000 kPa, x2 = 0.1654 | 668.73
342.99 K, 12000 kPa, x2 = 0.1654 | 669.8
342.99 K, 13000 kPa, x2 = 0.1654 | 670.86
342.99 K, 14000 kPa, x2 = 0.1654 | 671.91
342.99 K, 15000 kPa, x2 = 0.1654 | 672.94
342.99 K, 16000 kPa, x2 = 0.1654 | 673.96
342.99 K, 17000 kPa, x2 = 0.1654 | 674.95
342.99 K, 18000 kPa, x2 = 0.1654 | 675.92
